{
  "source": "patent US12083178B2",
  "about": "“Anti-fibroblastic fluorochemical emulsion therapies” (priority 2010, dated 2024)",
  "experiment": "Treatment of a dog with soft tissue sarcoma and lung metastasis by pulmonary aerosol administration",
  "format": "in vivo, dog (Golden Retriever)",
  "conditions": "agent aerosolized alone, without emulsion; general observation",
  "method": "A 9 year old Golden Retriever with soft tissue sarcoma and extensive lung metastasis was treated with 9 mg/ml twice weekly for 10 weeks by pulmonary aerosol administration (FIG. 7A & FIG. 7B). […]",
  "data": [
    {"smiles": "Nc1ccn([C@@H]2O[C@H](CO)[C@@H](O)C2(F)F)c(=O)n1", "note": "[Gemcitabine, gemcitabine]", "values": [
      {"measurement": "necrosis in lung parenchyma and pleural metastasis", "value": "severe necrosis is always observed"}
    ]}
  ]
}
